Laboratory results from patent US11174262B2, “Compounds, compositions and methods” (Denali Therapeutics Inc., priority 2017, dated 2021).

Biological target: GST-hRIPK1 (8-327) (Homo sapiens (Human), UniProt Q13546)
Assay: Fluorescent Polarization Binding (FP Binding) assay, RIPK1
Details: 10 nM GST-hRIPK1 (8-327), 5 nM fluorescent-labeled ligand, RT, 30 min, mean of minimum two experiments
Procedure: Fluorescent Polarization Binding (FP Binding) assay (Berger S. B. et al. (2015) Cell Death Discovery, 1: 15009; Maki J. L. et al. (2012) Anal Biochem., 427 (2): 164-174) was performed in polystyrene low volume 384-well black plate, at Room Temperature (RT) in a final volume of 10.1 μL/well using 10 nM of GST-hRIPK1 (8-327) enzyme and 5 nM of fluorescent-labeled ligand (14-(2-{[3-({2-{[4-(cyanomethyl)phenyl]amino}-6-[(5-cyclopropyl-1H-pyrazol-3-yl)amino]-4-pyrimidinyl}amino) propyl]amino}-2-oxoethyl)-16,16,18,18-tetramethyl-6,7,7a,8a,9,10,16,18-octahydrobenzo [2″,3″]indolizino[8″,7″:5′,6′]pyrano [3′,2′:3,4]pyrido[1,2-a]indol-5-ium-2-sulfonate.
Test compounds were serially diluted in DMSO at 100 fold final concentrations in the assay (1% DMSO final). In each well of a 384-well Plate were dispensed 0.1 μL of compound solution (or DMSO for controls) followed by 5 μL of GST-hRIPK1 (8-327) at twice the final concentrations in assay buffer (50 mM HEPES pH 7.5, 10 mM NaCl, 50 mM MgCl2, 0.02% CHAPS, 0.5 mM DTT and 0.01% Pluronic F127). For negative control the enzyme addition was replaced by assay buffer only.
After addition of 5 μL of fluorescent-labeled ligand at twice the final concentrations in assay buffer, the plate was incubated at RT for […]. At the end, the binding was measured as FP value with the Envision (PerkinElmer) plate reader using filter for an excitation λ=531 nm FP and an emission λ=595 nm FP (S & P-pol).
Test compound inhibition was expressed as percent inhibition of internal assay controls. For concentration response curves, normalized data is fit and IC50 determined using XL-fit (IDBS) for Excel. IC50 were averaged to determine a mean value, for a minimum of two independent experiments.
Receptor interacting protein kinase 1 activity of exemplary compounds was determined according to the above general procedures.

Sequence of GST-hRIPK1 (8-327) (Q13546 8-327): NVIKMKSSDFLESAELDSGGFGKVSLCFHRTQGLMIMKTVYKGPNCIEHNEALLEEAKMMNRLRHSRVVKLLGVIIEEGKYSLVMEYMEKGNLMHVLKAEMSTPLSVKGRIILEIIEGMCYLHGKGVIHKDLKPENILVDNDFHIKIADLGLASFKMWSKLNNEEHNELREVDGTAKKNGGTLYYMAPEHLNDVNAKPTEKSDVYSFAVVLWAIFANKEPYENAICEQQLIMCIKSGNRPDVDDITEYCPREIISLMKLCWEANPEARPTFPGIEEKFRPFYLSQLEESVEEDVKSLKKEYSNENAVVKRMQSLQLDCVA

SMILES	IC50 [nM]
CC1(C)CCCN2CCC(c3cncc(F)c3)N2C1=O (racemic) [Example 1, 3-(5-fluoro-3-pyridyl)-6,6-dimethyl-1,2,3,7,8,9-hexahydropyrazolo[1,2-a]diazepin-5-one]	< 1000
CC1(C(F)F)CCCN2CCC(c3cncc(F)c3)N2C1=O (racemic) [Example 11, 6-(difluoromethyl)-3-(5-fluoro-3-pyridyl)-6-methyl-1,2,3,7,8,9-hexahydropyrazolo[1,2-a]diazepin-5-one]	< 1000
CC1(C)CCCN2CCC(c3ccc(F)c(F)c3)N2C1=O (single isomer, unassigned) [Example 4, 3-(3,4-difluorophenyl)-6,6-dimethyl-1,2,3,7,8,9-hexahydropyrazolo[1,2-a]diazepin-5-one]	< 1000
CC1(C)CCCN2CCC(c3cccc(F)c3)N2C1=O (single isomer, unassigned) [Example 5, 3-(3-fluorophenyl)-6,6-dimethyl-1,2,3,7,8,9-hexahydropyrazolo[1,2-a]diazepin-5-one]	< 1000
CC1(C(F)F)CCCN2CCC(c3cncc(F)c3)N2C1=O (single isomer, unassigned) [Example 10, 6-(difluoromethyl)-3-(5-fluoro-3-pyridyl)-6-methyl-1,2,3,7,8,9-hexahydropyrazolo[1,2-a]diazepin-5-one]	< 1000
Cc1cnc(C2CCN3CCCC(C)(C(F)F)C(=O)N23)cn1 (single isomer, unassigned) [Example 12, 6-(difluoromethyl)-6-methyl-3-(5-methylpyrazin-2-yl)-1,2,3,7,8,9-hexahydropyrazolo[1,2-a]diazepin-5-one]	< 1000
CCC1(C(F)F)CCCN2CCC(c3cnc(C)cn3)N2C1=O (single isomer, unassigned) [Example 17, 6-(difluoromethyl)-6-ethyl-3-(5-methylpyrazin-2-yl)-1,2,3,7,8,9-hexahydropyrazolo[1,2-a]diazepin-5-one]	< 1000
CCC1(C)COC[C@H]2CC[C@@H](c3cccc(F)c3)N2C1=O (stereo partly drawn) [Example 8, (7S,9aR)-4-ethyl-7-(3-fluorophenyl)-4-methyl-1,3,7,8,9,9a-hexahydropyrrolo[2,1-c][1,4]oxazepin-5-one]	1000 to 30000

Second part, the compound after the results:

IC50 [nM]	SMILES
< 1000	CC1(C)CCCN2CCC(c3cncc(C#N)c3)N2C1=O (racemic) [Example 9, 5-(6,6-dimethyl-5-oxo-1,2,3,7,8,9-hexahydropyrazolo[1,2-a]diazepin-3-yl)pyridine-3-carbonitrile]
1000 to 30000	O=C1N2C(c3cncc(F)c3)CCN2CCCC12CC2 (racemic) [Example 16, 3-(5-fluoro-3-pyridyl)spiro[1,2,3,7,8,9-hexahydropyrazolo[1,2-a]diazepine-6,1′-cyclopropane]-5-one]
< 1000	CCC1(C(F)F)CCCN2CCC(c3cnc(C)cn3)N2C1=O (racemic) [Example 18, 6-(difluoromethyl)-6-ethyl-3-(5-methylpyrazin-2-yl)-1,2,3,7,8,9-hexahydropyrazolo[1,2-a]diazepin-5-one]
< 1000	Cc1cnc(C2CCN3CCCC(C)(C)C(=O)N23)cn1 (single isomer, unassigned) [Example 2, 6,6-dimethyl-3-(5-methylpyrazin-2-yl)-1,2,3,7,8,9-hexahydropyrazolo[1,2-a]diazepin-5-one]
< 1000	CC1(C)CCCN2CCC(c3cc(F)cc(F)c3)N2C1=O (single isomer, unassigned) [Example 3, 3-(3,5-difluorophenyl)-6,6-dimethyl-1,2,3,7,8,9-hexahydropyrazolo[1,2-a]diazepin-5-one]
< 1000	Cc1cnc(C2CCN3CCCC(C)(C(F)F)C(=O)N23)cn1 (single isomer, unassigned) [Example 13, 6-(difluoromethyl)-6-methyl-3-(5-methylpyrazin-2-yl)-1,2,3,7,8,9-hexahydropyrazolo[1,2-a]diazepin-5-one]
< 1000	CC1(C(F)F)CCCN2CCC(c3cncc(C#N)c3)N2C1=O (single isomer, unassigned) [Example 14, 5-[6-(difluoromethyl)-6-methyl-5-oxo-1,2,3,7,8,9-hexahydropyrazolo[1,2-a]diazepin-3-yl]pyridine-3-carbonitrile]
< 1000	CC1(C(F)F)CCCN2CCC(c3cncc(C#N)c3)N2C1=O (single isomer, unassigned) [Example 15, 5-[6-(difluoromethyl)-6-methyl-5-oxo-1,2,3,7,8,9-hexahydropyrazolo[1,2-a]diazepin-3-yl]pyridine-3-carbonitrile]
< 1000	CC1(C)CCCN2CCC(c3cc(F)cc(C#N)c3)N2C1=O (stereo not drawn) [Example 6, 3-(6,6-dimethyl-5-oxo-1,2,3,7,8,9-hexahydropyrazolo[1,2-a]diazepin-3-yl)-5-fluoro-benzonitrile]
< 1000	CC1(C)CCCN2CCC(c3ccc(C#N)cc3)N2C1=O (stereo not drawn) [Example 7, 4-(6,6-dimethyl-5-oxo-1,2,3,7,8,9-hexahydropyrazolo[1,2-a]diazepin-3-yl)benzonitrile]
